Laboratory results published in patent US20190276798A1, “METHOD FOR PREPARING COLLAGEN HAVING REGENERATION AND REPAIR EFFECTS FROM WHARTON'S JELLY MESENCHYMAL STEM CELLS” (P.E. ASIA BIOMEDICINE CO., LTD., priority 2018, published 2019).

Tests used:
type III collagen = assay: Collagen 3 expression in WJMSC cells, Western blotting; format: cell-based, human; details: for expression of pro-collagen 3: FIG. 3(B), ImageJ fold change vs control, normalized to β-actin
Experimental: (§1) Wharton's Jelly mesenchymal stein cells (WJMSC cells: BCRC H-WJ001) were cultured in α-MEM medium supplemented with 10% to 20% of fetal bovine serum (FBS) and 2 to 8 ng/mL of human basic fibroblast growth factor (bFGF). In the present invention, the WJMSC cells are incubated in α-MEM medium supplemented with 10% FBS and 4 ng/mL bFGF. In addition, the WJMSC cells are incubated in an incubator with a temperature of 37° C. and 5% carbon dioxide (CO2).
(§2) The WJMSC cells were seeded onto culture dishes at a cell density of 5×10^4 cells/cm^2, and incubated in a first medium of 10% FBS α-MEM medium supplemented with and 4 ng/mL bFGF for 24 hours. After 24 hours, the first medium was removed and the WJMSC cells were washed by 1× phosphate-buffered saline (PBS) for two to three times. The WJMSC cells were then incubated in a second medium for 48 hours. The second medium contains α-MEM medium supplemented with bFGF (ProSpece cat: cyt-218-b), proline (Calbiochem, cat: #5370), arginine (Merck, cat: #1011542) or L-ascorbic acid (Sigma, cat: SI-A8960) as experimental design. After 48 hours, the cells were collected for protein extraction, and expression of type I collagen (abbreviated to “collagen 1”) and type III collagen (abbreviated to “collagen 3”) was examined.
(§3) The cell medium was removed and the cells were washed by 1× PBS for two times. The cells were treated with 10 mM EDTA (ethylenediaminetetraacetic acid)-PBS solution or 0.5 M acetic acid and scraped down at 4° C. to obtain a first mixture. The first mixture was placed into a centrifuge tube for lysing cells by a sonication process. The sonication process comprises sonication at […] for 15 seconds by an ultrasonicator for three times, and the time interval between each sonication is 30 seconds. After the sonication process, the first mixture was centrifuged at 4° C. at a speed of 2000 rpm for 30 minutes to obtain a protein crud extract.
(§4) In addition, a cell lysis buffer can be used for cell protein extraction. The extraction method comprises the steps of removing cell medium, washing the cells by 1× PBS twice, adding RIPA cell lysis buffer containing 10 mM EDTA into the cells and shaking for at least 30 minutes, scraping down the cells to obtain a cells-lysis buffer mixture, placing the cells-lysis buffer mixture into a centrifuge tube, and centrifuging at 4° C. at a speed of 12000 rpm for at least 15 minutes to obtain a protein crud extract.
(§5) The protein crud extract was then mixed with 25% saturated […] solution, or mixed with 3M sodium chloride (NaCl) solution for reaction at 4° C. for 24 hours to perform a salting-out process. After 24 hours, the mixed solution was centrifuged at 4° C. at a speed of 3500 g for 30 minutes, and a supernatant was removed to preserve a sediment. The sediment was washed by 1× PBS, and centrifuged at 4° C. at a speed of 3500 g for 30 minutes. The sediment was preserved and dissolved by 0.5 M acetic acid solution to obtain a protein extract. The protein extract was then analyzed by Western blotting assay to detect expression of collagen. All the experiments were repeated at least twice and the results with representative are disclosed.
(§6) FIG. 3(A) is a diagram showing effects of L-ascorbic acid and proline on collagen expression in WJMSC cells. In FIG. 3(A), “AA(5)” represents that WJMSC cells were treated with 5 μM L-ascorbic acid, “Pro(2)” represents that WJMSC cells were treated with 2 mM proline, and “bFGF(4)” represents that the WJMSC cells were treated with 4 ng/mL bFGF. In addition, pro-collagen 1, collagen 1, pro-collage 3 and collagen 3 are marked by arrow signs in FIG. 3(A). […] Referring to FIG. 3(B), the results in FIG. 3(A) are quantified by ImageJ software, the quantification method comprises steps of acquiring a density value of a band of a target in Western blotting and normalizing the density value with a density value of β-actin of the same sample to obtain a normalization value. […]

type I collagen = assay: Collagen 1 expression in WJMSC cells, Western blotting; format: cell-based, human; details: for expression of pro-collagen 1: FIG. 3(B), ImageJ fold change vs control, normalized to β-actin
Experimental: as §1, §2, §3, §4, §5, §6

[1] = system: Human foreskin fibroblasts (HS68); assay: Wound healing of HS68 cells on collagen-coated culture dish; format: cell-based; details: for Wound size (%): dish coated with 50 μg/mL collagen; for Wound healing percentage (%): relative to wound size at 2 hours
Experimental: Human foreskin fibroblasts (HS68) were seed and attached onto a culture dish at a density of 2×10^4 cells/cm^2 and were incubated in 10% FBS DMEM medium for 24 hours. In control group, an ordinary culture dish without any treatment was used. In collagen group, a collagen-coated culture dish used is prepared by dropping appropriate amount of collagen extracted from WJMSC cells at a concentration of 50 μg/mL on a surface of the culture dish, spreading the collagen evenly, and placing the culture dish into a 37° C. incubator overnight to obtain the collagen-coated culture dish. After the HS68 cells were cultured for 24 hours, the culture medium of HS68 cells was removed and the cells were washed by 1× PBS. A wound was generated on the attached cells, and the wound was observed and photographed at 0, 2, 4, 6, and 20 hours after wound generation by a microscopy. The photographs were analyzed by ImageJ software. The region has no cell on it is considered as a wound size, and a wound healing percentage is calculated by the following formula:
Wound healing percentage (%)=[(wound size at observed time point−wound size at 2 hours after wound generation)/wound size at 2 hours after wound generation]×100%.

[2] = WJMSC cells treated with 4 ng/mL bFGF
[3] = WJMSC cells treated with 0.2 mM to 20 mM of arginine (FIG. 1)
[4] = WJMSC cells treated with arginine alone, 0.2 mM (FIG. 2)
[5] = WJMSC cells treated with 0.2 mM proline
[6] = WJMSC cells treated with 2 mM proline, vs control
[7] = WJMSC cells treated with 5 mM to 20 mM proline, same enhancement as with 2 mM
[8] = WJMSC cells treated with 5 μM L-ascorbic acid

bFGF: human basic fibroblast growth factor (bFGF)
expression of pro-collagen 3 (type III collagen; 4 ng/mL bFGF): enhanced
expression of collagen 3 (type III collagen; [2]): enhanced
expression of pro-collagen 1 (type I collagen; 4 ng/mL bFGF): enhanced
expression of collagen 1 (type I collagen; [2]): enhanced

Collagen
Wound size (%) ([1]; 2 hr after wound generation): 15.2%
Wound healing percentage (%) ([1]; 4 hr after wound generation): 13.0%
Wound size (%) ([1]; 4 hr after wound generation): 13.3%
Wound healing percentage (%) ([1]; 6 hr after wound generation): 38.0%
Wound healing percentage (%) ([1]; 6 hr after wound generation, listed as collagen): 38%
Wound size (%) ([1]; 6 hr after wound generation): 9.4%
Wound healing percentage (%) ([1]; 20 hr after wound generation): 100.0%
Wound healing percentage (%) ([1]; 20 hr after wound generation, listed as collagen): 100%
Wound size (%) ([1]; 20 hr after wound generation): 0.0%
cell density ([1]; 20 hr, 10× objective lens, vs control group (FIG. 6)): higher
cells observed on the wound region ([1]; after 4 hours and 6 hours of wound generation, microscopy, vs control group (FIG. 6)): more significant
wound region covered by cells ([1]; after 20 hours of wound generation, microscopy (FIG. 6)): all covered by cells
wound healing percentage, collagen group compared with control group ([1]; over the observed time points): better

N=C(N)NCCC[C@H](N)C(=O)O [arginine]
expression of collagen 3 (type III collagen; [3]): not is enhanced
expression of collagen 3 (type III collagen; [4]): not enhanced
expression of collagen 1 (type I collagen; [3]): not is enhanced
expression of collagen 1 (type I collagen; [4]): not enhanced

O=C(O)[C@@H]1CCCN1 [proline]
expression of pro-collagen 3 (type III collagen; 2 mM proline): enhanced
expression of collagen 3 (type III collagen; [5]): enhanced
expression of collagen 3 (type III collagen; [6]): enhanced
expression of collagen 3 (type III collagen; [7]): not achieved
expression of pro-collagen 1 (type I collagen; 2 mM proline): enhanced
expression of collagen 1 (type I collagen; [5]): enhanced
expression of collagen 1 (type I collagen; [6]): enhanced
expression of collagen 1 (type I collagen; [7]): not achieved

O=C1O[C@H]([C@@H](O)CO)C(O)=C1O [L-ascorbic acid]
expression of pro-collagen 3 (type III collagen; 5 μM L-ascorbic acid): enhanced
expression of collagen 3 (type III collagen; [8]): enhanced
expression of pro-collagen 1 (type I collagen; 5 μM L-ascorbic acid): enhanced
expression of collagen 1 (type I collagen; [8]): enhanced
